According to paper PMC12036557, “Functional Imaging of CYP3A4 at Multiple Dimensions Using an AI‐Driven High Performance Fluorogenic Substrate” (Small (Weinheim an Der Bergstrasse, Germany), 2025):
Read-outs that look alike come from different tables or passages of the source.

Columns and labels:
[1] = Metabolic stability assay of 4-HNFa in phase II metabolizing system; format: in vitro ADME; conditions: human, pH 7.4; HLMs in the presence of UDPGA; read-out: metabolic half-life t1/2
CYP3A4 [2] = molecular target: T1, CYP3A4 (Homo sapiens, UniProt P08684); design: expressed in transfected cells; host or cells: CHO-3A4 stably transfected cell line; conditions: cited from earlier work; for cell-membrane permeability (Shortages) / Specificity: previously reported fluorescent substrates; for cell-membrane permeability (Shortages): 9 of the supplement; for Specificity: ref 7-10 of the supplement
hCYP3A4 in HLMs [3] = molecular target: T2, hCYP3A4 in HLMs (Homo sapiens, UniProt P08684); assay: NFa-based screening and characterizing of hCYP3A4 inhibitors in HLMs; conditions: inhibitor 1 μM, HLMs, NFa as fluorogenic substrate
CYP3A4 [4] = molecular target: T1, CYP3A4; assay: in vitro; conditions: pH 7.4
hCYP3A4 in HLMs [5] = molecular target: T2, hCYP3A4 in HLMs; conditions: 1 µM
[6] = system: panel of human recombinant cytochrome P450 enzymes; assay: P450 reaction phenotyping analysis; format: biochemical; conditions: each recombinant CYP 2.5 nM, 37 °C, 30 min
CYP3A4 [7] = molecular target: T1, CYP3A4; assay: Enzyme kinetic analyses of NFs 4-hydroxylation by hCYP3A4; format: biochemical; design: purchased Cypex
[8] = Optical properties, photostability and pH stability of NFa and 4-HNFa; format: physicochemical; design: maximum UV absorption: unit not given here
[9] = system: MCF‐7, Hep3B, and U87 cells; assay: Cytotoxicity assays; format: cell-based

T2 sequence (P08684 whole entry): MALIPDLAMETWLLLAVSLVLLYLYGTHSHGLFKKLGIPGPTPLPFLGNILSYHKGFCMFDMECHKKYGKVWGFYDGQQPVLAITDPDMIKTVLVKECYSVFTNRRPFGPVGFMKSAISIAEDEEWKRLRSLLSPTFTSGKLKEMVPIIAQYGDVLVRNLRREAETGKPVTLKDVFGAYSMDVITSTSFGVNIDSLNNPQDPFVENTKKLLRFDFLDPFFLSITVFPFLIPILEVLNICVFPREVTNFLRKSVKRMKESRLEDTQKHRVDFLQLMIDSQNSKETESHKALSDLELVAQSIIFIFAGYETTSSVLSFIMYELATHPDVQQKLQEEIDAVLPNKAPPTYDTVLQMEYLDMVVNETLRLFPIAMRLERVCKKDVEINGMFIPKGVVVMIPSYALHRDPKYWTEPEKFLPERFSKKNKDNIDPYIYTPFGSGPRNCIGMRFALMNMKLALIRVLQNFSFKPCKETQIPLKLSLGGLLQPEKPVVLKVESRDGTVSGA
T1 sequence (P08684 whole entry): as above

## O=c1ccc2ccc(O)cc2o1 [7‐hydroxycoumarin, reference compound]
[1]
  half-life at 20 μM: 16.9 min

## O=c1ccc2nc3ccc(OCc4ccccc4)cc3oc-2c1 [BzRes, 7-benzyloxyresorufin]
CYP3A4 [2]
  cell-membrane permeability (Shortages): low cell-membrane permeability; unavailable in vivo
  Specificity: CYP3A4 non-specific substrate

## COc1ccc(-c2cc(=O)c3c(O)c(OC)c(O)c(OC)c3o2)cc1 [Lysionotin]
hCYP3A4 in HLMs [3]
  Residual activity: 96.88%

## COc1cc2c(cc1OC)C(=O)/C(=C/c1ccccc1)C2 [D1, (E)-2-benzylidene-5,6-dimethoxy-2,3-dihydro-1H-inden-1-one]
CYP3A4 [4]
  activity at 1 µM: 88%

## COc1ccc(-c2oc3c(CC=C(C)C)c(O)cc(O)c3c(=O)c2O)cc1 [Anhydroicaritin]
hCYP3A4 in HLMs [3]
  Residual activity: 87.82%

## O=C1C=CC[C@@H]2[C@H]3CCC[N+]4([O-])CCC[C@@H](CN12)[C@@H]34 (some centres unmarked) [Oxysophocarpine]
CYP3A4 [4]
  activity at 1 µM: 96.1%

## COc1cc(C2Oc3cc([C@H]4Oc5cc(O)cc(O)c5C(=O)[C@@H]4O)ccc3OC2CO)ccc1O (some centres unmarked) [Silybin]
CYP3A4 [4]
  activity at 30 min, 1 µM: 89%

## Sanggenone C
hCYP3A4 in HLMs [5]
  Residual activity: 92.64%

## COC[C@@]12CC[C@H](OC)[C@]34C(C([C@H](OC)[C@H]13)[C@]1(OC(C)=O)[C@H]3[C@@H](OC(=O)c5ccccc5)[C@](O)(C[C@H]34)[C@@H](OC)[C@@H]1O)N(C)C2 [Hypaconitine]
CYP3A4 [4]
  activity at 1 µM: 94.9%

## Cc1nc(CN2C(=O)c3cccc4cccc(c34)C2=O)cs1 [NFb, N-(2-Methyl-4-thiazolemethanamino)-naphtahlimide]
[6]
  isoform specificity as P450 substrate: highly specific substrates for hCYP3A4
CYP3A4 [7]
  CL int (V max/K m): 558 µL min^−1/nmol hCYP3A4
  K m: 7.51 ± 0.49 µM

## C=C1[C@H]2C[C@@]3([C@@H]1O)[C@@H](CC2=O)[C@]12[C@@H]4C[C@H]3[C@H]1N(CC)C[C@]4(C)CC[C@@H]2O [Songorine]
CYP3A4 [4]
  activity at 1 µM: 104%

## CCN1C(=O)c2cccc3cccc(c23)C1=O [NEN, N‐ethyl‐1,8‐naphthalimide]
CYP3A4 [2]
  cell‐membrane permeability: very poor cell‐membrane permeability
  cell-membrane permeability (Shortages): low cell-membrane permeability; unavailable in vivo
  Specificity: CYP3A4 specific substrate

## CC(C)=CCC[C@](C)(O)[C@H]1CC[C@]2(C)[C@@H]1[C@H](O)C[C@@H]1[C@@]3(C)CC[C@H](O)C(C)(C)[C@@H]3[C@@H](O)C[C@]12C [Protopanaxatriol]
hCYP3A4 in HLMs [3]
  Residual activity: 43.85%

## O=C1C[C@@H](c2ccc(O)cc2)Oc2cc(O)ccc21 [Liquiritigenin]
hCYP3A4 in HLMs [3]
  Residual activity: 90.60%

## CC[C@@]1(O)C(=O)OCc2c1cc1n(c2=O)Cc2cc3ccccc3nc2-1 [Camptothecin]
CYP3A4 [4]
  activity at 30 min, 1 µM: 93.8%

## COc1ccc(-c2oc3c(CC=C(C)C)c(O)cc(O)c3c(=O)c2O)cc1 [Icaritin]
CYP3A4 [4]
  activity at 30 min, 1 µM: 90.1%

## C=CC(C)(C)c1cc(/C=C/C(=O)c2ccc(O)cc2)c(OC)cc1O [Licochalcone A]
hCYP3A4 in HLMs [3]
  Residual activity: 39.20%

## COc1cc2c(cc1O)[C@@H](Cc1ccc(O)c(Oc3ccc(C[C@@H]4c5cc(OC)c(OC)cc5CCN4C)cc3)c1)N(C)CC2 [Daurisoline]
hCYP3A4 in HLMs [3]
  Residual activity: 91.85%

## O=c1cccc2n1C[C@@H]1CNC[C@H]2C1 [Cytisine]
CYP3A4 [4]
  activity at 1 µM: 94.1%

## COc1ccc2cc1Oc1ccc(cc1)C[C@H]1c3cc(c(OC)cc3CCN1C)Oc1c(OC)c(OC)cc3c1[C@H](C2)N(C)CC3 [Tetrandrine]
CYP3A4 [4]
  activity at 30 min, 1 µM: 95.2%

## CCN1C[C@]2(OC(=O)c3ccccc3NC(C)=O)CC[C@H](OC)[C@@]34[C@@H]2C[C@@H]([C@@H]13)[C@@]1(O)C[C@H](OC)[C@H]2C[C@@H]4[C@]1(O)[C@H]2OC [Lappaconitine]
hCYP3A4 in HLMs [3]
  Residual activity: 94.46%

## O=C1C[C@@H]2OCC=C3CN4CC[C@]56c7ccccc7N1[C@H]5[C@H]2[C@H]3C[C@H]46 [Strychnine]
CYP3A4 [4]
  activity at 30 min, 1 µM: 96.3%

## CC(C)=CCCC(C)(O)[C@H]1CC[C@]2(C)[C@@H]1[C@H](O)C[C@@H]1[C@@]3(C)CC[C@H](O)C(C)(C)[C@@H]3CC[C@]12C (stereo in doubt) [Protopanaxadiol]
hCYP3A4 in HLMs [3]
  Residual activity: 69.66%

## O=C1C=CC[C@@H]2[C@H]3CCCN4CCC[C@@H](CN12)[C@@H]34 [Sophocarpine]
CYP3A4 [4]
  activity at 30 min, 1 µM: 94.1%

## COc1ccc(-c2cc(=O)c3c(O)c(OC)c(O)cc3o2)cc1 [Pectolinarigenin]
CYP3A4 [4]
  activity at 30 min, 1 µM: 98%

## COc1cc2c(cc1OC)-c1cc3ccc4c(c3c[n+]1CC2)OCO4 [Epiberberine]
hCYP3A4 in HLMs [3]
  Residual activity: 89.82%

## COc1ccc(-c2cc(=O)c3c(OC)c(OC)c(OC)c(OC)c3o2)cc1OC [Nobiletin]
CYP3A4 [4]
  activity at 30 min, 1 µM: 102%

## COc1ccc2c(c[n+](C)c3c4cc5c(cc4ccc23)OCO5)c1OC [Chelerythrine]
CYP3A4 [4]
  activity at 1 µM: 89.6%

## COc1c(/C=C/C(=O)c2ccc(O)cc2)ccc(O)c1CC=C(C)C [Licochalcone C]
hCYP3A4 in HLMs [5]
  Residual activity: 59.04%

## CC(C)c1nc(CN2C(=O)c3cccc4cccc(c34)C2=O)cs1 [NFd, N-(2-Isopropyl-4-thiazolemethanamino)-naphtahlimide]
[6]
  isoform specificity as P450 substrate: highly specific substrates for hCYP3A4
CYP3A4 [7]
  CL int (V max/K m): 504 µL min^−1/nmol hCYP3A4
  K m: 4.17 ± 0.21 µM

## O=C1c2c(O)cc(O)cc2O[C@H](c2ccc(O)cc2)[C@H]1O [Aromadendrin]
hCYP3A4 in HLMs [3]
  Residual activity: 91.70%

## COc1ccc([C@@H]2CC(=O)c3c(O)cc(O)cc3O2)cc1O [Hesperetin]
CYP3A4 [4]
  activity at 30 min, 1 µM: 96.8%

## O=c1cc(C(F)(F)F)c2ccc(OCc3ccccc3)cc2o1 [BFC, 7-benzyloxy-4-trifluoromethylcoumarin]
CYP3A4 [2]
  Specificity: CYP3A4 non-specific substrate

## c1c2c(cc3c1OCO3)-c1cc3ccc4c(c3c[n+]1CC2)OCO4 [Coptisine]
CYP3A4 [4]
  activity at 1 µM: 77.9%

## CN1[C@@H]2C[C@@H](OC(=O)[C@H](CO)c3ccccc3)C[C@H]1[C@@H]1O[C@@H]12 [Scopolamine]
CYP3A4 [4]
  activity at 1 µM: 98.8%

## O=C(OCc1ccccc1)c1ccccc1-c1c2ccc(=O)cc-2oc2cc(OCc3ccccc3)ccc12 [DBF, dibenzylfluorescein]
CYP3A4 [2]
  Specificity: CYP2C8, CYP3A4, CYP3A5

## O=C1c2cccc3c(O)ccc(c23)C(=O)N1Cc1cscn1 [4-HNFa, 4-Hydroxyl-N-(4-thiazolemethanamino)-naphtahlimide]
[1]
  half-life at 20 μM: 58.6 min
[8]
  Fluorescence quantum yield Φf: 0.129
  Molar extinction coefficient ε: 25300 M⁻¹ cm⁻¹
  maximum UV absorption: 450
  maximum fluorogenic emission: 555 nm
[8]; 2 μM
  pH range of stable fluorescence signals ≈555 nM: 6.5–12.0
[8]; continuous illumination at 450 nm
  photostability: good photostability
[9]
  cytotoxicity: weak cytotoxicity

## CCN1C[C@]2(COC)[C@H](O)C[C@H](OC)[C@@]34[C@@H]5C[C@@]6(O)[C@H](OC(=O)c7ccccc7)[C@@H]5[C@@](OC(C)=O)([C@@H]([C@H](OC)[C@H]23)[C@@H]14)[C@@H](O)[C@@H]6OC [Aconitine]
CYP3A4 [4]
  activity at 30 min, 1 µM: 94.8%

## COc1cc2c(=O)n(C)c3c4cc5c(cc4ccc3c2cc1OC)OCO5 [Oxynitidine]
hCYP3A4 in HLMs [3]
  Residual activity: 89.98%

## CN1[C@@H]2CC[C@H]1C[C@@H](OC(=O)[C@H](CO)c1ccccc1)C2 [Hyoscyamine]
CYP3A4 [4]
  activity at 1 µM: 98%

## CC1(C)CC[C@]2(C(=O)O)CC[C@]3(C)C(=CC[C@@H]4[C@@]5(C)CC[C@H](O)C(C)(C)[C@@H]5CC[C@]43C)[C@@H]2C1 [Oleanolic acid]
CYP3A4 [4]
  activity at 1 µM: 70.2%

## CC(C)=CCc1cc(C(=O)/C=C/c2ccc(O)cc2)c(O)cc1O [Bavachalcone]
hCYP3A4 in HLMs [3]
  Residual activity: 90.43%
